Data from publication PMC8580066 (2021).

Tests used:
[1] = system: c-Myc (DNA, G4) TGAGGGTGGGTAGGGTGGGTAA; assay: fluorescence titration, simple binding model; conditions: K+ 100 mM, 10 mM lithium cacodylate, pH 7.3, stoichiometry fixed, equivalent stereoisomers, per site
[2] = system: c-Myc (DNA, G4) TGAGGGTGGGTAGGGTGGGTAA; assay: thiazole orange displacement (TO-FID); conditions: K+ 100 mM; 10 mM Tris-HCl, pH 7.3; thiazole orange 2 μM displaced; DNA 1 μM; helicene 0-20 μM
[3] = system: BCL2 (BCL2Mid) (DNA, G4) GGGCGCGGGAGGAATTGGGCGGG; assay: fluorescence titration, competitive binding model; conditions: K+ 100 mM, 10 mM lithium cacodylate, pH 7.3, 32% and 96% ee samples, helicene 6 μM, per site
[4] = system: c-Myc (DNA, G4) TGAGGGTGGGTAGGGTGGGTAA; assay: fluorescence titration, competitive binding model; conditions: K+ 100 mM, 10 mM lithium cacodylate, pH 7.3, 32% and 96% ee samples, helicene 6 μM, per site
[5] = system: HTG4 (DNA, G4) AGGGTTAGGGTTAGGGTTAGGG; assay: fluorescence titration, competitive binding model; conditions: K+ 100 mM, 10 mM lithium cacodylate, pH 7.3, 32% and 96% ee samples, helicene 6 μM, per site

Kd ([1]; helicene 4 μM constant) [µM]	DC50 [2] [µM]	Kd ([3]; KM from simultaneous fit of 0%) [µM]	Kd ([3]; KP from simultaneous fit of 0%) [µM]	Kd ([4]; KM from simultaneous fit of 0%) [µM]	Kd ([4]; KP from simultaneous fit of 0%) [µM]	Kd ([5]; KM from simultaneous fit of 0%) [µM]	Kd ([5]; KP from simultaneous fit of 0%) [µM]	Kd [1] [µM]	SMILES
0.7	3.8	–	–	–	–	–	–	–	CCCN1c2ccc3ccccc3c2-c2c3c1cccc3[n+](CCC)c1ccc3ccccc3c21
–	4.4	5.1	7.5	3.8	4.7	6.2	7.5	4.7	OCCN1c2ccc3ccccc3c2-c2c3c1cccc3[n+](CCO)c1ccc3ccccc3c21
–	6.0	–	–	–	–	–	–	3.8	c1ccc2c3c(ccc2c1)N(CCN1CCOCC1)c1cccc2c1c-3c1c3ccccc3ccc1[n+]2CCN1CCOCC1
